Reference: patent publication US20140328930A1, “Pharmaceutical Compositions” (Alpharma Pharmaceuticals, LLC, priority 2007, published 2014)
Structures can show the parent of a compound that is named as a salt.

Assays:
[1] = single dose 2.4 mg naltrexone, fasted
[2] = clinical; settings: human, in vivo, 2.4 mg
[3] = cited from earlier work

With `O=C1CC[C@@]2(O)[C@H]3Cc4ccc(O)c5c4[C@@]2(CCN3CC2CC2)[C@H]1O5` [Naltrexone HCl Solution] the “Naltrexone Tlast, Mean” value [1] was 20.00 h, the “Naltrexone λz, Mean” value [1] was 0.2013 h⁻¹ and the Tmax [2] was 1.13 h. It also gave a concentration at 0 h [2] of 0 ng/mL, a concentration at 0.5 h [2] of 0.455 ng/mL and a concentration at 1 h [2] of 0.629 ng/mL. For the same molecule, the concentration at 2 h [2] was 0.465 ng/mL, the concentration at 3 h [2] was 0.286 ng/mL and the concentration at 4 h [2] was 0.182 ng/mL. For the same molecule, the concentration at 5 h [2] was 0.133 ng/mL, the concentration at 6 h [2] was 0.0957 ng/mL and the concentration at 8 h [2] was 0.0518 ng/mL. For the same molecule, the concentration at 10 h [2] was 0.0287 ng/mL, the concentration at 12 h [2] was 0.0205 ng/mL and the concentration at 16 h [2] was 9.96 pg/mL. For the same molecule, the concentration at 24 h [2] was 3.16 pg/mL, the concentration at 36 h [2] was 0.607 pg/mL and the concentration at 48 h [2] was 0 ng/mL. It also gave a concentration at 60 h [2] of 0 ng/mL, a concentration at 72 h [2] of 0 ng/mL and a concentration at 84 h [2] of 0 ng/mL. For the same molecule, the concentration at 96 h [2] was 0 ng/mL, the concentration at 120 h [2] was 0 ng/mL and the AUC(0-t) ([2]; Naltrexone AUC0-t, Mean, single dose 2.4 mg naltrexone, fasted) was 2.2 ng·h/mL. It also gave an AUC(0-inf) ([2]; Naltrexone AUCinf, Mean, single dose 2.4 mg naltrexone, fasted) of 2.24 ng·h/mL, a Cmax ([2]; Naltrexone Cmax, Mean, single dose 2.4 mg naltrexone, fasted) of 0.689 ng/mL and an AUC(0-inf) ([2]; Naltrexone ln(AUCinf), Geometric Mean, Least Squares Mean of log-transformed values) of 1.99 ng·h/mL. It also gave an AUC(0-t) ([2]; Naltrexone ln(AUClast), Geometric Mean, Least Squares Mean of log-transformed values) of 1.95 ng·h/mL and a Cmax ([2]; Naltrexone ln(Cmax), Geometric Mean, Least Squares Mean of log-transformed values) of 0.58 ng/mL.
In the case of `O=C1CC[C@@]2(O)[C@H]3Cc4ccc(O)c5c4[C@@]2(CCN3CC2CC2)[C@H]1O5` [naltrexone], the Protein binding ([3]; in vivo) is listed as “approximately 21%” and the Oral bioavailability ([3]; oral) is listed as 5-40%.
